What was measured:
PI3K alpha = molecular target: T1, PI3K alpha (Homo sapiens, UniProt P42336); test: Enzymatic PI3K alpha isoform inhibition (lipid kinase activity, Kinase-Glo); assay type: biochemical; details: enzymatic assay
T1 construct: for the p110-a subunit (with a deletion of the first 20 amino acids) are generated; His tag (C); made in house; host or cells: baculovirus BV1075; Tn5 (Trichoplusia ni) or TiniPro insect cells
Method in brief: (§1)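 Reactions were started with ATP (2 μM solution) after the enzyme (10 nM solution) and phosphatidylinositol substrate (5 μg/ml solution) were added to the DMSO-dissolved compounds.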

PI3K delta = molecular target: T2, PI3K delta (Homo sapiens, UniProt O00329); test: Enzymatic PI3K delta isoform inhibition (lipid kinase activity, Kinase-Glo); assay type: biochemical; details: enzymatic assay
T2 construct: for the full-length p110-d subunit are generated and fused by overlapping PCR; His tag (C); made in house; host or cells: baculovirus BV1060; Tn5 (Trichoplusia ni) or TiniPro insect cells
Method in brief: as §1

murine B cells = test: Murine B cell activation: CD86 expression on CD19 positive B cells after anti-IgM stimulation; assay type: cell-based; details: Balb/c mouse splenocytes, anti-IgM 30 μg/ml, 24 hours, read-out: mCD86/ IC50 CD86
Description: PI3Kδ has been recognized to modulate B cell function when cells are stimulated through the B cell receptor (BCR) (Okkenhaug et al. Science 297:1031 (2002). For assessing the inhibitory property of compounds on B cell activation, the upregulation of activation markers CD86 and CD69 on murine B cells derived from mouse spleen […] is measured after stimulation with anti-IgM. CD69 is a well known activation marker for B and T cells (Sancho et al. Trends Immunol. 26:136 (2005). CD86 (also known as B7-2) is primarily expressed on antigen-presenting cells, including B cells. Resting B cells express CD86 at low levels, but upregulate it following stimulation of e.g. the BCR or IL-4 receptor. CD86 on a B cell interacts with CD28 on T cells. This interaction is required for optimal T cell activation and for the generation of an optimal IgG1 response (Carreno et al. Annu Rev Immunol. 20:29 (2002)).
Spleens from Balb/c mice were collected, splenocytes were isolated and washed twice with RPMI containing 10% foetal bovine serum (FBS), 10 mM HEPES, 100 Units/ml penicilline/streptomycine. RPMI supplemented in this way is subsequently referred to as medium. The cells were adjusted to 2.5×10^6 cells/ml in medium and 200 μl cell suspension ([…]) were added to the appropriate wells of 96 well plates.
Then the cells were stimulated by adding 50 μl anti-IgM mAb in medium (final concentration: 30 μg/ml). After incubation for 24 hours at 37° C., the cells were stained with the following antibody cocktails: anti-mouse CD86-FITC, anti-mouse CD69-PerCP-Cy5.5, anti-mouse CD19-PerCP for the assessment of B cells, and anti-mouse CD3-FITC, anti-mouse CD69-PE for the assessment of T cells (2 μl of each antibody/well). After one hour at room temperature (RT) in the dark the cells were transferred to 96 Deepwell plates. The cells were washed once with 1 ml PBS containing 2% FBS and after re-suspension in 200 μl the samples were analyzed on a FACS Calibur flow cytometer. Lymphocytes were gated in the FSC/SSC dot plot according to size and granularity and further analyzed for expression of CD19, CD3 and activation markers (CD86, CD69). Data were calculated from dot blots as percentage of cells positively stained for activation markers within the CD19+ or CD3+ population using BD CellQest Software.
For assessing the inhibitory property of compounds, compounds were first dissolved and diluted in DMSO followed by a 1:50 dilution in medium. Splenocytes from Balb/c mice were isolated, re-suspended and transfered to 96 well plates as described above (200 μl/well). The diluted compounds or solvent were added to the plates (25 μl) and incubated at 37° C. for 1 hour. Then the cultures were stimulated with 25 μl anti-IgM mAb/well (final concentration 30 μg/ml) for 24 hours at 37° C. and stained with anti-mouse CD86-FITC and anti-mouse CD19-PerCP (2 μl of each antibody/well). CD86 expression on CD19 positive B cells was quantified by flow cytometry as described above.

T1 sequence (P42336 with tags, fused parts or gaps limits assumed, species assumed): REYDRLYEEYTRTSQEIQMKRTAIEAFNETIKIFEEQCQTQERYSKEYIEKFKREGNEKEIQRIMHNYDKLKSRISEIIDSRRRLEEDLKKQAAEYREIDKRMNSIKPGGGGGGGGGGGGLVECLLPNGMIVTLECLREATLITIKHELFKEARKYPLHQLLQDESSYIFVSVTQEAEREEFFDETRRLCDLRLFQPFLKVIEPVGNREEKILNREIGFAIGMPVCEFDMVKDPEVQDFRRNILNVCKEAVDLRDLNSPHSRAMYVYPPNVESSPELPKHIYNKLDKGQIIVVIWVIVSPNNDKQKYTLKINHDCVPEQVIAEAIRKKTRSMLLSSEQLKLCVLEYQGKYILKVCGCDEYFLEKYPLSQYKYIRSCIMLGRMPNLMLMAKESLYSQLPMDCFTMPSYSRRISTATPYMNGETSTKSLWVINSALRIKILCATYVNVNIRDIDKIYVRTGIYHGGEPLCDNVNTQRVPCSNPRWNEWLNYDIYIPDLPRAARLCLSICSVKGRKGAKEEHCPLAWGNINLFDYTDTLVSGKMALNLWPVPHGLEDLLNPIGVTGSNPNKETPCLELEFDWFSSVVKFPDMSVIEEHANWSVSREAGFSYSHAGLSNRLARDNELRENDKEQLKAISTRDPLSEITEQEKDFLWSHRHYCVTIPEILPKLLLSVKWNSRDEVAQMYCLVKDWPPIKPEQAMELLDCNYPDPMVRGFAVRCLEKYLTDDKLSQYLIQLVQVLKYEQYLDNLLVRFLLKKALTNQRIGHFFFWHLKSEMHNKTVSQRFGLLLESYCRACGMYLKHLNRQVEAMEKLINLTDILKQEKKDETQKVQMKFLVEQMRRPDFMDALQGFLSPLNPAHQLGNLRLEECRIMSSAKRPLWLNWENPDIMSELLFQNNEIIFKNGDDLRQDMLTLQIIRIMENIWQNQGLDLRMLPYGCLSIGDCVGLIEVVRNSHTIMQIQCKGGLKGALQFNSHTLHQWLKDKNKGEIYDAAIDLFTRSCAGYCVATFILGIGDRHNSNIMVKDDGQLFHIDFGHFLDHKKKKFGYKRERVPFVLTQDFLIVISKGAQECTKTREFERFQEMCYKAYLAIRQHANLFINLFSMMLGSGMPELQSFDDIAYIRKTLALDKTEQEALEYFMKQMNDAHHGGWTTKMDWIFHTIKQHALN
T2 sequence (O00329 with tags, fused parts or gaps limits assumed, species assumed): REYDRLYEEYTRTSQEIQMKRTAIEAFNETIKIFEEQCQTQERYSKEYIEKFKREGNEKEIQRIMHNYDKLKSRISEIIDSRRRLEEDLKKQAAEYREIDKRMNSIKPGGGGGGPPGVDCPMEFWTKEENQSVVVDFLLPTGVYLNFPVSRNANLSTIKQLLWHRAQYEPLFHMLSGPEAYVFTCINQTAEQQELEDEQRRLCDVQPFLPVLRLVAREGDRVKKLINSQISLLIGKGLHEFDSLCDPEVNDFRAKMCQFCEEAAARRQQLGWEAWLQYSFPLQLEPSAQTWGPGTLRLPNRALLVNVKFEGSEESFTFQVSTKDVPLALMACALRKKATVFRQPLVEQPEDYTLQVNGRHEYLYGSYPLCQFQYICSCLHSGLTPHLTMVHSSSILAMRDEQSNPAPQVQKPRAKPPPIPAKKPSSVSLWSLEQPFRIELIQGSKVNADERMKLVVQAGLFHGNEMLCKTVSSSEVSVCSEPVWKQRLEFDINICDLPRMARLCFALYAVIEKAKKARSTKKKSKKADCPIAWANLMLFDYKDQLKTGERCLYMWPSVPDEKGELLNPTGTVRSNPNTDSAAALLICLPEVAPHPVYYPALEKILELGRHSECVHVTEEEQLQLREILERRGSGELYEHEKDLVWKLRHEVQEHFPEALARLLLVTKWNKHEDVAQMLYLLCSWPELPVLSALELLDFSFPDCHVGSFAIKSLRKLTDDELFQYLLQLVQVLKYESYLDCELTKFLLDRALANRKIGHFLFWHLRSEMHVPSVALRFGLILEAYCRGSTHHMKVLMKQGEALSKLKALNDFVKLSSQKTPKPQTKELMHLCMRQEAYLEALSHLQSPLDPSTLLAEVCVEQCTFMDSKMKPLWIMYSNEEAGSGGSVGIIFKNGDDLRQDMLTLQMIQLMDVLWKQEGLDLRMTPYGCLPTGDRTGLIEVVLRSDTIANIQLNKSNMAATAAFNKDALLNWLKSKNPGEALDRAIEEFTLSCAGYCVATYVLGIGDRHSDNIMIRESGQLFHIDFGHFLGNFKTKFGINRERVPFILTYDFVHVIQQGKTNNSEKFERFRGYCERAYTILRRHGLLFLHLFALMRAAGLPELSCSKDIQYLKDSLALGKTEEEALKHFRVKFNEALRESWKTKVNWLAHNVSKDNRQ

| IC50 (PI3K alpha) [nM] | IC50 (PI3K delta) [nM] | IC50 (murine B cells) [nM] | SMILES |
| --- | --- | --- | --- |
| 779 | 9.5 | 69.5 | COc1ncc(-c2ccc3ncnc(-c4cccc(C(=O)N5CCN(C)CC5)c4)c3c2)cn1 [Example 2] |
| 712 | 6 | 20.1 | COc1ccc(-c2ccc3ncnc(-c4cccc(C(=O)N5CCN(C(C)=O)CC5)c4)c3c2)cc1S(=O)(=O)N1CCCC1 [Example 7] |
| 320 | 12 | 54 | CNc1ncc(-c2ccc3ncnc(-c4cncc(C(=O)N5CCN(C)CC5)c4)c3c2)cc1C [Example 75, {5-[6-(5-Methyl-6-methylamino-pyridin-3-yl)-quinazolin-4-yl]-pyridin-3-yl}-(4-methyl-piperazin-1-yl)-methanone] |
| 401 | 3.62 | 79 | COc1ccc(-c2ccc3ncnc(-c4cncc(C(=O)N5CCNC(C)(C)C5)c4)c3c2)cc1C(F)(F)F [Example 81, (3,3-Dimethyl-piperazin-1-yl)-{5-[6-(4-methoxy-3-trifluoromethyl-phenyl)-quinazolin-4-yl]-pyridin-3-yl}-methanone] |
| 146 | < 3 | 44 | COc1ccc(-c2ccc3ncnc(-c4cccc(C(=O)N5C[C@@H]6C[C@H]5CN6C)c4)c3c2)cn1 [Example 91, {3-[6-(6-Methoxy-pyridin-3-yl)-quinazolin-4-yl]-phenyl}-((1S,4S)-5-methyl-2,5-diaza-bicyclo[2.2.1]hept-2-yl)-methanone] |
| 366 | 8 | 155 | COc1ccc(-c2ccc3ncnc(-c4cc(F)cc(C(=O)N5CCN(C(C)=O)CC5)c4)c3c2)cn1 [Example 110, 1-(4-{3-Fluoro-5-[6-(6-methoxy-pyridin-3-yl)-quinazolin-4-yl]-benzoyl}-piperazin-1-yl)-ethanone] |
| 238 | 9 | 101 | COc1ccc(-c2ccc3ncnc(-c4ccc(C)c(C(=O)N5CC6CC5CN6C)c4)c3c2)cn1 (stereo not drawn) [Example 117] |
